Source: PMC3569154 (Clinical Psychopharmacology and Neuroscience, 2012)

Columns and labels:
[1] = target: T1, [^3H]glycine uptake sites (GlyT-1) (Mus musculus, UniProt P28571); assay: Inhibition of [^3H]glycine uptake in mouse brain homogenates; type: biochemical
T1 sequence (P28571 1-692): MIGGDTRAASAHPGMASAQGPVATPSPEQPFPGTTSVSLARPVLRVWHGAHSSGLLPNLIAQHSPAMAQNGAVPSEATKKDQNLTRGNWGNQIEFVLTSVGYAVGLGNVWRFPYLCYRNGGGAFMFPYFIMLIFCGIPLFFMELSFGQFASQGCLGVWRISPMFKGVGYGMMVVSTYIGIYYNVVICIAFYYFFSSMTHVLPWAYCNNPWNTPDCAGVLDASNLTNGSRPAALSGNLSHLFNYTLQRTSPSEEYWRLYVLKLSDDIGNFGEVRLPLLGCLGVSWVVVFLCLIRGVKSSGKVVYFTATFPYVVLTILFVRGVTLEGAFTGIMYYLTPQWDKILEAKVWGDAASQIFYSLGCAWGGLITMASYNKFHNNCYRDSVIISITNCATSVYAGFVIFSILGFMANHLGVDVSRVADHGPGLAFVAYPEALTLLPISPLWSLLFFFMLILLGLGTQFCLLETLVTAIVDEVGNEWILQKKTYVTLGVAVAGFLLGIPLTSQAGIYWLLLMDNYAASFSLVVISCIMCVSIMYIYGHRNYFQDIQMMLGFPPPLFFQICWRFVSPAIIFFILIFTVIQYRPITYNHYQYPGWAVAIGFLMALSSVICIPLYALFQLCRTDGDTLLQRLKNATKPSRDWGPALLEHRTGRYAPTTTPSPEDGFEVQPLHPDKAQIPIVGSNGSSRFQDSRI

[2] = test system: 28-standard receptor-binding profile; conditions: 1µM; cited from earlier work

IC50 [1]: 2.7 nM
SMILES: CN1CCCC[C@@H]1[C@@H](NC(=O)c1nccc(C(F)(F)F)c1Cl)c1ccsc1 [CHIBA-3007, 3-chloro-N-((S)-((R)-1-methylpiperidin-2-yl)(thiophen-3-yl)methyl)-4-(trifluoromethyl)picolinamide]
inhibition in 28-standard receptor-binding profile [2]: < 50%
